The values below come from patent US20080319181A1, “Method of Making an Artificial Nuclease for Anti-viral, Anti-bacterial Applications” (The Government of the United States of America, as …, priority 2004, published 2008).

Common to all, as to assay type: biochemical
The subject of assay [1] is luciferase mRNA. In words: Hydrolysis of RNA, denaturing agarose gel electrophoresis. To be noted: 1 to 5 mM; 24 h at 25° C. in HBS (FIG. 5). As to the method:
The direct interaction of Co(III)-cycmmb with luciferase mRNA was analyzed by denaturing agarose gel electrophoresis. mRNA template (2 μg at a final concentration of 0.4 mg/mL) was incubated with varying concentrations (1 to 5 mM) of activated Co(III)-cycmmb for 24 h at 25° C. in 5 μL of HBS. Following the incubation, the reactions were analyzed by electrophoresis on a 2% denaturing agarose gel run for 4 h at 40 V. The gel was stained with RiboGreen (Molecular Probes), visualized by UV illumination, and images were quantified using Scion Image using the control incubation (no Co(III)-cycmmb) as a standard (see FIG. 5).

The nature of assay [2]: Hydrolysis of BNPP by cobalt cyclen complexes (2nd order rate constants). Conditions: 50° C., activation using sodium hydroxide. As to the method:
The hydrolysis of BNPP by both Cocyc and 2 at 50° C., following activation using sodium hydroxide, has been measured (see Table 1). The second-order rate constants at pH 8.2 for both cyclen and 2 were similar at 14 and 12 M^−1 min^−1, respectively. The rate increased at pH 7.3 to a value of 19 M^−1 min^−1 for cyclen as compared to the published value of 2.8 M^−1 min^−1 at pH 7 (Chin, J.; Banaszczyk, M.; Jubian, V.; Zou, X. J. Am. Chem. Soc. 1989, 111, 186-190, the entire contents of which is incorporated herein by reference). The difference between the published value and ours can be attributed to different experimental conditions, such as buffer. pH, and the ratio of catalyst to substrate.
The much lower hydrolysis rate shown at pH 7.3 for Cocycmba is surprising. In order to determine whether the differences observed were mainly due to the carboxylic acid or to the presence of the benzene ring, the kinetics of 3 were measured at pH 7.3 and found to be 14 M^−1 min^−1, which is much closer to the Cocyc rate. Methylation of the benzoic acid takes away both the negative charge and an ability to effectively hydrogen bond. Therefore the results imply that the behavior of 2 can be mostly ascribed to the presence of the additional charge and the potential for hydrogen bonding. For example, the acid dissociation constants of cyclen of 5.6 and 8.0 mean that between pH 8.2 and 7.3 complexes 1 and 2 should convert from predominantly the dihydroxo to the aquo-hydroxo form (see FIG. 2). Since the benzoic acid is in the benzoate form (pKa 4.2), the increasing net positive charge at pH 7.3 of the coordination site may allow the benzoate to approach closer to Co(III) and interfere with the hydrolysis of BNPP.

Assay [3] has as its system pBluescript plasmid DNA. Put plainly: Hydrolysis (nicking) of plasmid DNA, agarose gel. Conditions: pH 7; 5 mM cobalt complex; 0.1M MOPS; 37° C., approximately 16 hours; NIH Image. As to the method:
DNA was digested with cocycmba and cocycmmb at three pH conditions (FIG. 3). Hydrolysis of the phosophodiester bonds of the double stranded (ds) plasmid DNA should lead to a conversion from the covalently closed supercoiled form to the nicked form of the plasmid. […] Plasmid DNA digested with a nicking enzyme (lane 1 FIG. 3) confirms that the slower moving band observed in digests with the cobalt catalysts is the nicked form of the plasmid.
Digests run overnight at 37° C. for approximately 16 hours on a 1.5% agarose gel. Controls with no cobalt catalyst were always run in parallel. b) 5 mM cocycmmb and 1.19 μg (0.168 mM bp) pBluescript plasmid DNA in 0.1M MOPS buffer at pH 7, 8, and 10 run under identical conditions. 1=Nickase+DNA, 2=DNA. 3=Cobalt complex+DNA at pH 7.4=pH 7 control, 5=Cobalt complex+DNA at pH 8, 6=pH 8 control, 7=Cobalt complex+DNA at pH 10, 8=pH 10 control Nickase reactions were performed at pH 7 using a 4 hour, 37° C. incubation of 1.18 μg pBluescript plasmid DNA.

For assay [4], the system named is Luciferase control-RNA. Put plainly: Western blot analysis of effect on protein translation (Rabbit Reticulocyte Lysate). The procedure:
Luciferase control-RNA (at a final concentration of 0.4 ug/mL) was incubated with increasing concentrations of Cocycmmb for 24 h in 1× HBS buffer (pH 7.4) for 24 h. After the incubation period, the RNA template was translated into luciferase protein using the Rabbit Reticulocyte Lysate translation system (Promega) according to the manufacturer's instructions. After translation, the reaction was analyzed by reducing SDS-PAGE and western blotting to monitor the presence of the 60 kDa luciferase protein product. An aliquot (3 uL) of the translation reaction was run on a 10% NuPAGE Bis-Tris polyacrylamide gel under reducing conditions and transferred to a solid support membrane (PVDF). The membrane was blocked for 1 h in TBS-T (TBS containing 0.05% Tween) and subsequently incubated for 1 h with a 1:2500 dilution of a streptavidin-alkaline phosphatase conjugate. Detection was achieved by exposing the membrane to Western Blue substrate for alkaline phosphatase.
RNA incubations were done as described above except that the Cocycmmb concentration was held constant at 5 mM (and, more recently, down to 0.05 mM) and incubated for varying amounts of time that spanned 24 h. SDS-PAGE and Western blotting were done as described above.

For the compound `COC(=O)c1ccc(CN2CCNCCNCCNCC2)cc1.COS(=O)(=O)[O-].[Cl-].[Cl-].[Co+3]` [Cocycmmb, Dichloro{methyl 4-[(1,4,7,10-tetraazacyclododec-1-yl)methyl]-benzoate}cobalt (III) methylsulfate], the “hydrolysis of RNA” value in assay [1] is on record as “hydrolyze RNA”. Also, the “2nd Order Rate Constants, hydrolysis of BNPP” value was 0.233 M⁻¹ s⁻¹ in assay [2] (pH 7.3) and 0.183 M⁻¹ s⁻¹ in assay [2] (pH 8.2). In assay [3], the nicked product came out at 43%. In addition, in assay [4] (0.25 mM, 10 minutes incubation time), the “inhibition of protein production” value is listed as “significant inhibition of protein production”. Besides, the “luciferase protein band in the Western blot” value in assay [4] (as a function of Cocycmmb concentration and of time of contact with the RNA (FIG. 4)) is on record as “absence of the protein band”.
With “dichloro(4-[1,4,7,10-tetraazacyclotetradec-1-yl]methylbennzoic acid)cobalt(III) chloride [Cocycmba]”, the entries for the “2nd Order Rate Constants, hydrolysis of BNPP” value in assay [2] (pH 7.3) and in assay [2] (pH 8.2) were 0.045 M⁻¹ s⁻¹ and 0.2 M⁻¹ s⁻¹, respectively. This compound also yielded a nicked product in assay [3] of 25%.
